Assay results from patent US10745384B2, “Indazole derivatives as αv integrin antagonists” (BRISTOL-MYERS SQUIBB COMPANY, priority 2016, dated 2020).
pIC50: −log10 of the molar value.

Biological target: T1, human αVβ6 (Homo sapiens, UniProt P06756+P18564)
T1 construct: purchased R & D systems 3817-AV
Assay: human αVβ6 HTRF binding assay
Conditions: recombinant human αVβ6 integrin, FITC-conjugated fibronectin
Procedure, shortened: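 HTRF binding in 20 mM Tris pH 7.4 with 1 mM MgCl2, 1 mM MnCl2, 0.01% Tween 20 and 0.01% BSA. For αVβ6, biotinylated integrin (1.25 nM) and FITC-fibronectin (5 nM) were incubated 1 h at RT, then streptavidin-terbium (0.625 nM) was added overnight in the dark. An SPA-based fibronectin binding format was an alternative.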

T1 sequence (P06756 31-992 limits assumed): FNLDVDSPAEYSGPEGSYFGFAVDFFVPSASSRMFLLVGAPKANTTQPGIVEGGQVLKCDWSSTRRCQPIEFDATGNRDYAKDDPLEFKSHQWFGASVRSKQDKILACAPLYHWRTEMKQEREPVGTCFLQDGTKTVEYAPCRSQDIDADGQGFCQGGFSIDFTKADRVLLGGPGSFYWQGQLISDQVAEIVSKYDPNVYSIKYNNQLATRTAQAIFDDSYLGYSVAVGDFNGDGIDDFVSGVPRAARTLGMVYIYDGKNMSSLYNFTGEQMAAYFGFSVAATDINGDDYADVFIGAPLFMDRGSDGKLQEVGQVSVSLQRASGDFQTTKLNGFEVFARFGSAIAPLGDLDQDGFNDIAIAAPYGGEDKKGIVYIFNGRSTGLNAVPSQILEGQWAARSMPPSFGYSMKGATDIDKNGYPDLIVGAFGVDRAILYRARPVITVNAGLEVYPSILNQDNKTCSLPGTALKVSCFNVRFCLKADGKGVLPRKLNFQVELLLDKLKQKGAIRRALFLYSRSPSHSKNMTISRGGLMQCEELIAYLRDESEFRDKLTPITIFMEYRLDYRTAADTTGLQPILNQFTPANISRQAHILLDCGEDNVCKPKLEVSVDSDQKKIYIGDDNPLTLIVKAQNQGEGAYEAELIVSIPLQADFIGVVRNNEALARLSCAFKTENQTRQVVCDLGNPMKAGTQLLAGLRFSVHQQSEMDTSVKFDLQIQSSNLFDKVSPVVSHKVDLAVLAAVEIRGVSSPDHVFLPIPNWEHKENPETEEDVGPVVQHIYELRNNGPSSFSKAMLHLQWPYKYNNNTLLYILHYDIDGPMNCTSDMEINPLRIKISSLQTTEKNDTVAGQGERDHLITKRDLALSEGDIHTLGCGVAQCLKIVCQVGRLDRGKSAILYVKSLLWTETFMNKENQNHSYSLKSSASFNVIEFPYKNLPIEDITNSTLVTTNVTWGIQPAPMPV
T1 sequence (P18564 22-707 limits assumed): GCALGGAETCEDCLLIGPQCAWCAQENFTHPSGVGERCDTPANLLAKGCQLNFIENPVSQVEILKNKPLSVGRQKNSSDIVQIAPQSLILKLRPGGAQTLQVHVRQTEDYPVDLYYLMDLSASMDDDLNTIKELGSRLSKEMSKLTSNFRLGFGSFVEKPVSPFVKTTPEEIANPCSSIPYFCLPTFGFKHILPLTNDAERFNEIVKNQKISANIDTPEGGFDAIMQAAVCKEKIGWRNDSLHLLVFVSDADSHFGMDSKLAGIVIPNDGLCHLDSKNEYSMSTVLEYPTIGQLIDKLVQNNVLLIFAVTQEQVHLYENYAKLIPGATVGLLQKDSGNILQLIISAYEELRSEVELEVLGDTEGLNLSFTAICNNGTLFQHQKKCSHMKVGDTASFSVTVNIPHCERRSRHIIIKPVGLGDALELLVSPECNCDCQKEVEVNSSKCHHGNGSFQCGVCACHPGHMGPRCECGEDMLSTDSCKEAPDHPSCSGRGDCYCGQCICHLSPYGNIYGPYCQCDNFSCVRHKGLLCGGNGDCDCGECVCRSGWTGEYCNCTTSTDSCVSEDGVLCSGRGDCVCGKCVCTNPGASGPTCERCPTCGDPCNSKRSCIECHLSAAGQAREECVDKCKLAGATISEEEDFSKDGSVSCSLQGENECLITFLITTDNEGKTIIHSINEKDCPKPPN

Row | pIC50 | SMILES
1 | 8.09 | O=C(O)CC(c1cncc(-c2ccn[nH]2)c1)n1ncc2cc(OCCc3ccc4c(n3)NCCC4)ccc21 (centres unmarked) [Example 141, 3-(5-(1H-pyrazol-5-yl)pyridin-3-yl)-3-(5-(2-(5,6,7,8-tetrahydro-1,8-naphthyridin-2-yl)ethoxy)-1H-indazol-1-yl)propanoic acid]
2 | 8.30 | CC(C)(O)c1cncc(C(CC(=O)O)n2ncc3cc(OCCc4ccc5c(n4)NCCC5)ccc32)c1 (centres unmarked) [Example 144, 3-(5-(2-hydroxypropan-2-yl)pyridin-3-yl)-3-(5-(2-(5,6,7,8-tetrahydro-1,8-naphthyridin-2-yl)ethoxy)-1H-indazol-1-yl)propanoic acid]
3 | 5.72 | CC(C)(O)c1cncc([C@@H](CC(=O)O)n2ncc3cc(OCCc4ccc5c(n4)NCCC5)ccc32)c1 [Example 145, (R)-3-(5-(2-hydroxypropan-2-yl)pyridin-3-yl)-3-(5-(2-(5,6,7,8-tetrahydro-1,8-naphthyridin-2-yl)ethoxy)-1H-indazol-1-yl)propanoic acid]
4 | 8.28 | CC(C)(O)c1cncc([C@H](CC(=O)O)n2ncc3cc(OCCc4ccc5c(n4)NCCC5)ccc32)c1 [Example 146, (S)-3-(5-(2-hydroxypropan-2-yl)pyridin-3-yl)-3-(5-(2-(5,6,7,8-tetrahydro-1,8-naphthyridin-2-yl)ethoxy)-1H-indazol-1-yl)propanoic acid]
5 | 9.00 | O=C(O)C[C@@H](c1cncc(N2CCCC2=O)c1)n1ncc2cc(OCCc3ccc4c(n3)NCCC4)ccc21 [Example 151, (5)-3-(5-(2-oxopyrrolidin-1-yl)pyridin-3-yl)-3-(5-(2-(5,6,7,8-tetrahydro-1,8-naphthyridin-2-yl)ethoxy)-1H-indazol-1-yl)propanoic acid]
6 | 7.66 | O=C(O)CC(c1cncc(C(=O)N2CCOCC2)c1)n1ncc2cc(OCCc3ccc4c(n3)NCCC4)ccc21 (centres unmarked) [Example 152, 3-(5-(morpholine-4-carbonyl)pyridin-3-yl)-3-(5-(2-(5,6,7,8-tetrahydro-1,8-naphthyridin-2-yl)ethoxy)-1H-indazol-1-yl)propanoic acid]
7 | 7.77 | CN(C)C(=O)c1cncc(C(CC(=O)O)n2ncc3cc(OCCc4ccc5c(n4)NCCC5)ccc32)c1 (centres unmarked) [Example 153, 3-(5-(dimethylcarbamoyl)pyridin-3-yl)-3-(5-(2-(5,6,7,8-tetrahydro-1,8-naphthyridin-2-yl)ethoxy)-1H-indazol-1-yl)propanoic acid]
8 | 7.54 | CN1CCN(C(=O)c2cncc(C(CC(=O)O)n3ncc4cc(OCCc5ccc6c(n5)NCCC6)ccc43)c2)CC1 (centres unmarked) [Example 154, 3-(5-(4-methylpiperazine-1-carbonyl)pyridin-3-yl)-3-(5-(2-(5,6,7,8-tetrahydro-1,8-naphthyridin-2-yl)ethoxy)-1H-indazol-1-yl)propanoic acid]
9 | 8.28 | O=C(O)CC(c1cncc(C2CC2)c1)n1ncc2cc(OCCc3ccc4c(n3)NCCC4)ccc21 (centres unmarked) [Example 155, 3-(5-cyclopropylpyridin-3-yl)-3-(5-(2-(5,6,7,8-tetrahydro-1,8-naphthyridin-2-yl)ethoxy)-1H-indazol-1-yl)propanoic acid]
10 | 7.49 | O=C(O)CC(c1cncc(C(=O)N2CCC2)c1)n1ncc2cc(OCCc3ccc4c(n3)NCCC4)ccc21 (centres unmarked) [Example 157, 3-(5-(azetidine-1-carbonyl)pyridin-3-yl)-3-(5-(2-(5,6,7,8-tetrahydro-1,8-naphthyridin-2-yl)ethoxy)-1H-indazol-1-yl)propanoic acid]
11 | 7.89 | CN(C)CCNC(=O)c1cncc(C(CC(=O)O)n2ncc3cc(OCCc4ccc5c(n4)NCCC5)ccc32)c1 (centres unmarked) [Example 158, 3-(5-((2-(dimethylamino)ethyl)carbamoyl)pyridin-3-yl)-3-(5-(2-(5,6,7,8-tetrahydro-1,8-naphthyridin-2-yl)ethoxy)-1H-indazol-1-yl)propanoic acid]
12 | 7.33 | Cc1ncc([C@H](CC(=O)O)n2ncc3cc(OCCc4ccc5c(n4)NCCC5)ccc32)cn1 [Example 159, (S)-3-(2-methylpyrimidin-5-yl)-3-(5-(2-(5,6,7,8-tetrahydro-1,8-naphthyridin-2-yl)ethoxy)-1H-indazol-1-yl)propanoic acid]
13 | 5.59 | Cc1ncc([C@@H](CC(=O)O)n2ncc3cc(OCCc4ccc5c(n4)NCCC5)ccc32)cn1 [Example 160, (R)-3-(2-methylpyrimidin-5-yl)-3-(5-(2-(5,6,7,8-tetrahydro-1,8-naphthyridin-2-yl)ethoxy)-1H-indazol-1-yl)propanoic acid]

The remaining lines, values behind:

Row | SMILES | pIC50
14 | COc1ncc(C(CC(=O)O)n2ncc3cc(OCCc4ccc5c(n4)NCCC5)ccc32)cc1C1OCCO1 (centres unmarked) [Example 133, 3-(5-(1,3-Dioxolan-2-yl)-6-methoxypyridin-3-yl)-3-(5-(2-(5,6,7,8-tetrahydro-1,8-naphthyridin-2-yl)ethoxy)-1H-indazol-1-yl)propanoic acid] | 6.40
15 | O=C(O)CC(c1cccc(-n2cccn2)n1)n1ncc2cc(OCCc3ccc4c(n3)NCCC4)ccc21 (centres unmarked) [Example 134, 3-(6-(1H-Pyrazol-1-yl)pyridin-2-yl)-3-(5-(2-(5,6,7,8-tetrahydro-1,8-naphthyridin-2-yl)ethoxy)-1H-indazol-1-yl)propanoic acid] | 7.77
16 | O=C(O)CC(c1cnn(-c2ccncc2)c1)n1ncc2cc(OCCc3ccc4c(n3)NCCC4)ccc21 (centres unmarked) [Example 135, 3-(1-(Pyridin-4-yl)-1H-pyrazol-4-yl)-3-(5-(2-(5,6,7,8-tetrahydro-1,8-naphthyridin-2-yl)ethoxy)-1H-indazol-1-yl)propanoic acid] | 8.42
17 | Cn1cc2ncc(C(CC(=O)O)n3ncc4cc(OCCc5ccc6c(n5)NCCC6)ccc43)cc2n1 (centres unmarked) [Example 136, 3-(2-Methyl-2H-pyrazolo[4,3-b]pyridin-6-yl)-3-(5-(2-(5,6,7,8-tetrahydro-1,8-naphthyridin-2-yl)ethoxy)-1H-indazol-1-yl)propanoic acid] | 7.39
18 | Cn1ncc2ncc(C(CC(=O)O)n3ncc4cc(OCCc5ccc6c(n5)NCCC6)ccc43)cc21 (centres unmarked) [Example 137, 3-(1-Methyl-1H-pyrazolo[4,3-b]pyridin-6-yl)-3-(5-(2-(5,6,7,8-tetrahydro-1,8-naphthyridin-2-yl)ethoxy)-1H-indazol-1-yl)propanoic acid] | 8.15
19 | O=C(O)C[C@H](c1cncc(C2OCCO2)c1)n1ncc2cc(OCCc3ccc4c(n3)NCCC4)ccc21 [Example 138, (R)-3-(5-(1,3-dioxolan-2-yl)pyridin-3-yl)-3-(5-(2-(5,6,7,8-tetrahydro-1,8-naphthyridin-2-yl)ethoxy)-1H-indazol-1-yl)propanoic acid] | 7.37
20 | O=C(O)C[C@@H](c1cncc(C2OCCO2)c1)n1ncc2cc(OCCc3ccc4c(n3)NCCC4)ccc21 [Example 139, (S)-3-(5-(1,3-dioxolan-2-yl)pyridin-3-yl)-3-(5-(2-(5,6,7,8-tetrahydro-1,8-naphthyridin-2-yl)ethoxy)-1H-indazol-1-yl)propanoic acid] | 8.33
21 | Cn1cnc2ncc(C(CC(=O)O)n3ncc4cc(OCCc5ccc6c(n5)NCCC6)ccc43)cc21 (centres unmarked) [Example 140, 3-(1-methyl-1H-imidazo[4,5-b]pyridin-6-yl)-3-(5-(2-(5,6,7,8-tetrahydro-1,8-naphthyridin-2-yl)ethoxy)-1H-indazol-1-yl)propanoic acid] | 8.24
22 | O=C(O)CC(c1cncc(N2CCOCC2)n1)n1ncc2cc(OCCc3ccc4c(n3)NCCC4)ccc21 (centres unmarked) [Example 142, 3-(6-morpholinopyrazin-2-yl)-3-(5-(2-(5,6,7,8-tetrahydro-1,8-naphthyridin-2-yl)ethoxy)-1H-indazol-1-yl)propanoic acid] | 7.44
23 | Cn1cc(-c2cncc(C(CC(=O)O)n3ncc4cc(OCCc5ccc6c(n5)NCCC6)ccc43)c2)cn1 (centres unmarked) [Example 143, 3-(5-(1-methyl-1H-pyrazol-4-yl)pyridin-3-yl)-3-(5-(2-(5,6,7,8-tetrahydro-1,8-naphthyridin-2-yl)ethoxy)-1H-indazol-1-yl)propanoic acid] | 8.01
24 | COc1ncc([C@@H](CC(=O)O)n2ncc3cc(OCCc4ccc5c(n4)NCCC5)ccc32)cn1 [Example 147, (R)-3-(2-methoxypyrimidin-5-yl)-3-(5-(2-(5,6,7,8-tetrahydro-1,8-naphthyridin-2-yl)ethoxy)-1H-indazol-1-yl)propanoic acid] | 6.21
25 | COc1ncc([C@H](CC(=O)O)n2ncc3cc(OCCc4ccc5c(n4)NCCC5)ccc32)cn1 [Example 148, (S)-3-(2-methoxypyrimidin-5-yl)-3-(5-(2-(5,6,7,8-tetrahydro-1,8-naphthyridin-2-yl)ethoxy)-1H-indazol-1-yl)propanoic acid] | 7.74
26 | COc1cncc(C(CC(=O)O)n2ncc3cc(OCCc4ccc5c(n4)NCCC5)ccc32)n1 (centres unmarked) [Example 149, 3-(6-methoxypyrazin-2-yl)-3-(5-(2-(5,6,7,8-tetrahydro-1,8-naphthyridin-2-yl)ethoxy)-1H-indazol-1-yl)propanoic acid] | 5.64
27 | O=C(O)C[C@H](c1cncc(N2CCCC2=O)c1)n1ncc2cc(OCCc3ccc4c(n3)NCCC4)ccc21 [Example 150, (R)-3-(5-(2-oxopyrrolidin-1-yl)pyridin-3-yl)-3-(5-(2-(5,6,7,8-tetrahydro-1,8-naphthyridin-2-yl)ethoxy)-1H-indazol-1-yl)propanoic acid] | 6.96
28 | CN1CCN(c2cncc(C(CC(=O)O)n3ncc4cc(OCCc5ccc6c(n5)NCCC6)ccc43)c2)CC1 (centres unmarked) [Example 156, 3-(5-(4-methylpiperazin-1-yl)pyridin-3-yl)-3-(5-(2-(5,6,7,8-tetrahydro-1,8-naphthyridin-2-yl)ethoxy)-1H-indazol-1-yl)propanoic acid] | 8.06
29 | O=C(O)CC(c1cncc(-n2cccn2)c1)n1ncc2cc(OCCc3ccc4c(n3)NCCC4)ccc21 (centres unmarked) [Example 161, 3-(5-(1H-pyrazol-1-yl)pyridin-3-yl)-3-(5-(2-(5,6,7,8-tetrahydro-1,8-naphthyridin-2-yl)ethoxy)-1H-indazol-1-yl)propanoic acid] | 8.26
